The values below are quoted from earlier work in patent publication US11590077B2, “Fulvestrant formulations and methods of their use” (EAGLE PHARMACEUTICALS, INC., priority 2017, dated 2023).

For the data set the following is noted: background statement.

In the case of `C[C@]12CC[C@@H]3c4ccc(O)cc4C[C@@H](CCCCCCCCC[S+]([O-])CCCC(F)(F)C(F)(F)F)[C@H]3[C@@H]1CC[C@@H]2O` (stereo partly shown) [Fulvestrant, 7-(9-(4,4,5,5,5-pentafluoropentylsulfinyl)nonyl) estra-1,3,5(10)-triene-3,17-diol], the aqueous solubility result was “extremely low”.
